Data: publication PMC5778891 (Nature, 2017)
Substitutions are numbered along the chain they refer to.

Legend:
[1] = target: T1, K2P4.1(TRAAK) Q258K (Homo sapiens, UniProt Q9NYG8, Q232K); test: Two electrode voltage clamp in Xenopus oocytes, K2P4.1; format: cell-based; conditions: for effect of activator (current potentiation at 0 mV) compared with wild type: Xenopus oocytes, K2P4.1(TRAAK) Q258K, 10 μM BL-1249, 30 μM ML67-33
T1 sequence (Q9NYG8 1-419 isoform Q9NYG8-2 Q258K): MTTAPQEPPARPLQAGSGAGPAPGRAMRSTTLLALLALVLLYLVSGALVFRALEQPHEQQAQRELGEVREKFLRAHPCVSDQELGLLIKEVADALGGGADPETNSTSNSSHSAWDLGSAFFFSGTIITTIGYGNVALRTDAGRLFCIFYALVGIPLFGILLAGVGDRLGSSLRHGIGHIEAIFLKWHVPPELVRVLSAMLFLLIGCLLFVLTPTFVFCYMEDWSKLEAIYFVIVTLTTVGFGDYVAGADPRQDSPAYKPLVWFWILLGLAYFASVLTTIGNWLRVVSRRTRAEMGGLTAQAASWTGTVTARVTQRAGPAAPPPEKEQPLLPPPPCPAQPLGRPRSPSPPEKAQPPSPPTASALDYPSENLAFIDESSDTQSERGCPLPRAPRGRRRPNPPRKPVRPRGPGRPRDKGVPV

[2] = target: T2, K2P2.1(TREK-1) K271Q (Mus musculus, UniProt P97438, K286Q); test: Two electrode voltage clamp in Xenopus oocytes, K2P2.1; format: cell-based; conditions: for effect of activator (current potentiation at 0 mV) compared with wild type: 10 μM BL-1249, 30 μM ML67-33
T2 sequence (P97438 1-411 isoform P97438-2 K271Q): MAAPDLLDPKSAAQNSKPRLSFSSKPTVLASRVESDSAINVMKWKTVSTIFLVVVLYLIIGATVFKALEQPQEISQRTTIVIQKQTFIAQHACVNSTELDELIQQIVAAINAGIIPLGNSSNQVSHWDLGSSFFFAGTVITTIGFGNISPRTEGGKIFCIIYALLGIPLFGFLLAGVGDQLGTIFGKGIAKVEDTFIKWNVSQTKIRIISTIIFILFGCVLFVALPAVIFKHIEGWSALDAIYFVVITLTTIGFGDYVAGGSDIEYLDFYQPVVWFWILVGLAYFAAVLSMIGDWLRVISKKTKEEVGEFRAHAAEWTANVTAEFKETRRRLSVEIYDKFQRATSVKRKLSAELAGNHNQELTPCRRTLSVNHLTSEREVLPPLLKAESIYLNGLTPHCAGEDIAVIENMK

[3] = target: K2P2.1(TREK-1)cryst (Mus musculus, UniProt P97438, A104R/A107P/E321A/I103L/K99R/N110S/N134A/Q100E/Q105A/S111D/S315A/T101K/T112Q); test: cell-based
[4] = target: T3, K2P4.1(TRAAK) (Homo sapiens, UniProt Q9NYG8); test: Two electrode voltage clamp in Xenopus oocytes, K2P4.1; format: cell-based
T3 sequence (Q9NYG8 1-419 isoform Q9NYG8-2): T1 sequence (Q9NYG8 1-419 isoform Q9NYG8-2 Q258K) with K258Q

[5] = Solubility in aqueous solutions; format: physicochemical
[6] = target: T4, K2P2.1(TREK-1) (Mus musculus, UniProt P97438); test: cell-based
T4 sequence (P97438 1-411 isoform P97438-2): T2 sequence (P97438 1-411 isoform P97438-2 K271Q) with Q271K

[7] = target: T4, K2P2.1(TREK-1); test: Two electrode voltage clamp in Xenopus oocytes, K2P2.1; format: cell-based
[8] = target: T4, K2P2.1(TREK-1); test: HEK293 inside-out patches, 150 mM K+[out]/150 mM Rb+[in], rectification; format: cell-based; conditions: 5 μM compound
[9] = target: T5, K2P10.1(TREK-2) (Homo sapiens, UniProt P57789); test: Two electrode voltage clamp in Xenopus oocytes, K2P10.1; format: cell-based
T5 sequence (P57789 1-543 isoform P57789-3): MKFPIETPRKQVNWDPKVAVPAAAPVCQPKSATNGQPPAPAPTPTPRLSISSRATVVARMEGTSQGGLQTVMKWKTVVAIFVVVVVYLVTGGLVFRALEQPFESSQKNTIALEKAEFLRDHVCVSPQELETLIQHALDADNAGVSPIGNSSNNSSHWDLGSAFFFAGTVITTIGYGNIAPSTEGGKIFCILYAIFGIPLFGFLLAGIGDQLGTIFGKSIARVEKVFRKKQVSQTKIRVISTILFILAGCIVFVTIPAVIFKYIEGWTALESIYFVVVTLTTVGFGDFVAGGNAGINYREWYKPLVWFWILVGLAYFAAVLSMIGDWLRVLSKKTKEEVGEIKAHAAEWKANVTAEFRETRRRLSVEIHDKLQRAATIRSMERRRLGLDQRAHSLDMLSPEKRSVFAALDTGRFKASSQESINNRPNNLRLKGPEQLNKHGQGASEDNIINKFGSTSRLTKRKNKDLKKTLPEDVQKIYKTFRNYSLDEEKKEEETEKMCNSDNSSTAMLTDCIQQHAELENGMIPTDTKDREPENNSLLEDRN

[10] = target: T2, K2P2.1(TREK-1) K271Q; test: HEK cell patch clamp response to arachidonic acid, K2P2.1; format: cell-based; conditions: HEK cells, 10 μM AA

Sequence of K2P2.1(TREK-1)cryst (P97438 36-337 K99R/Q100E/T101K/I103L/A104R/Q105A/A107P/N110S/S111D/T112Q/N134A/S315A/E321A): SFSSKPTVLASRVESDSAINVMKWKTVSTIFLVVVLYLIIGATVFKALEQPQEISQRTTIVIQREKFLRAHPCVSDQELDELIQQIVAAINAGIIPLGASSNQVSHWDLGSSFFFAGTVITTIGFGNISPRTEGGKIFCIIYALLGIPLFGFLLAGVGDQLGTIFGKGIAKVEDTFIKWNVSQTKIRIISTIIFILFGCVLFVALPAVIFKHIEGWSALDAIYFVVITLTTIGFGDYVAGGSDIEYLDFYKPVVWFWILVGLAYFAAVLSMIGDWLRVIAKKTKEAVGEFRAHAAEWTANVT

Compound | effect of activator (current potentiation at 0 mV) compared with wild type [1] | effect of activator (current potentiation at 0 mV) compared with wild type [2] | EC50 [3] | activation of channel [4] | EC50 [1] | solubility in aqueous solutions [5] | EC50 [6] | EC50 [7] | rectification coefficient (I+100mV/I-100mV) [8] | EC50 [9] | sensitivity to activator [2] | other results
c1ccc(-c2nnn[nH]2)c(Nc2cccc3c2CCCC3)c1 [BL-1249, (5,6,7,8-tetrahydro-naphthalen-1-yl)-[2-(1H-tetrazol-5-yl)-phenyl]-amine, reference compound] | unchanged | unchanged |  |  |  |  |  |  |  |  |  | 
CC1(C)c2cc(Cl)ccc2N(CCc2nn[nH]n2)c2ccc(Cl)cc21 [ML67-33, reference compound] | unchanged | unchanged |  |  |  |  |  |  |  |  |  | 
CS(=O)(=O)Nc1ccc(C(=O)NCc2ccc(Cl)cc2Cl)cc1 [ML335, N-[(2,4-dichlorophenyl)methyl]-4-methanesulfonamidobenzamide] |  |  | 10.5 ± 2.7 µM | not | 16.2 ± 3 µM | insoluble | 5.2 ± 0.8 µM | 14.3 ± 2.7 µM | ~ 1 | 5.2 ± 0.5 µM | insensitive | 
C=CS(=O)(=O)N[C@H]1CC[C@H](C(=O)NCc2ccc(Cl)cc2Cl)CC1 [ML335a, trans-N-[(2,4-dichlorophenyl)methyl]-4-ethenesulfonamidocyclohexane-1-carboxamide] |  |  |  |  |  |  |  |  |  |  |  | effect on channel ([7]; Xenopus oocytes, dose response, K2P2.1(TREK-1)): no effect
Cc1cc(Cl)ccc1OCCNC(=O)c1cccs1 [ML402, N-[2-(4-chloro-2-methylphenoxy)ethyl]thiophene-2-carboxamide] |  |  | 14.9 ± 1.6 µM | not | 13.6 ± 1.5 µM | insoluble | 5.9 ± 1.6 µM | 13.7 ± 7 µM | ~ 1 | 5.9 ± 1.6 µM | insensitive | 
CCCCC/C=C\C/C=C\C/C=C\C/C=C\CCCC(=O)O [arachidonic acid] |  |  |  |  |  |  |  |  |  |  |  | effect of activator (current potentiation at 0 mV) compared with wild type [10]: unchanged
